Patent publication US20260083701A1, “COMPOSITIONS, FORMULATIONS, AND METHODS FOR TREATMENT OF INFLAMMATORY CONDITIONS” (Oddity Labs, LLC, priority 2023, published 2026)

Columns and labels:
IL-4 = test: Functional Th2-blocking activity: IL-4 expression in primary human Th2 cells (intracellular flow cytometry); format: cell-based; settings: for % Normalized Reduction of Cytokine Expression From Baseline in CD4+ T Cells IL-4: normalized against vehicle control (water), 3 days co-culture, PMA/ionomycin 6 hours; for % Normalized Reduction of Cytokine Expression From Baseline in CD4+ T Cells IL-4 / Expression of Cytokine following Stimulation (% X Positive among CD4+ T cells) IL-4: primary human CD4+ Th2 cells; for Expression of Cytokine following Stimulation (% X Positive among CD4+ T cells) IL-4: 3 days co-culture with compound, PMA/ionomycin stimulation 6 hours
Source text: (§1) To produce T helper 2 (Th2) cells, peripheral blood mononuclear cells (PBMCs) were harvested from healthy donor leukopaks using Ficoll gradients. Naive CD4+ T cells were further isolated, then activated using TransAct or Dynabeads (depending on the donor). CD4+ T cells were activated for two days in the presence of low dose IL-2 (30 IU/mL) in X-VIVO-15 media containing 5% human AB serum (activation cycle). On the second day, the media was exchanged and supplemented with interleukin 4 (IL-4) (20 ng/mL), anti-IFN-gamma antibody (1 μg/mL), and interleukin 2 (IL-2) (rest cycle). The cells were cultured for an additional five days then evaluated for Prostaglandin D2 receptor 2 (DP2 or CRTH2) expression and IL-4 and interleukin 13 (IL-13) expression following phorbol myristate acetate (PMA)/ionomycin stimulation. If the expression of CRTH2 was >50%, the cells were frozen and used in Th2 IL-4/IL-13 bioactivity assays. If the expression of CRTH2 <50%, then the cells were restimulated using TransAct (or Dynabeads) and maintained on similar cycles of activation (2 days) and rest (5 days), until the expression of CRTH2 exceeded 50%. Typically, no more than 4 cycles are needed before the Th2 cells may be harvested and frozen.
(§2) For testing the ability of a compound or salt of the present disclosure to reduce the expression of IL-4 and IL-13 was tested in primary human Th2 cells, the abovementioned cells were thawed, then cultured for one day in IL-2 containing media. The Th2 cells were treated with compounds added at varying concentrations for three days, after which, the cells were washed, and stimulated with PMA/ionomycin for 6 hrs prior to readabout via intracellular flow cytometry.
(§3) The ability of a compound or salt of the present disclosure to reduce the expression of IL-4 and IL-13 was tested in primary human Th2 cells. Naive, primary human CD4+ T cells were isolated from healthy donors and differentiated into Th2 cells using a combination of IL-4 cytokine and anti-IFN-gamma antibody, based on a modified protocol from Scott et al (Activation of Th2 cells downregulates CRTh2 through an NFAT1 mediated mechanism. PLoS One. 2018 Jul. 3; 13(7):e0199156). Th2 cells were CRTH2+ and expressed IL-4 and IL-13 following PMA/ionomycin stimulation. Prior to PMA/ionomycin stimulation, Th2 cells were co-cultured with a compound or salt of the present disclosure for 3 days and then stimulated for 6 hours. Intracellular flow cytometry was performed to investigate the expression of IL-4 and IL-13 among stimulated CD4+ Th2 cells. The compound or salt was evaluated across a 2-log concentration range. Th2 cells were cultured in X-VIVO-15 media with human AB serum and supplemented with low dose IL-2 (30 IU/mL). The antibody panel that was used is listed below. All antibodies were obtained from Biolegend.
(§4) Description of Calculation for: (1) Expression of Cytokine following Stimulation (% X Positive among CD4+ T cells), and (2) % Normalized Reduction of Cytokine Expression From Baseline in CD4+ T Cells
(§5) The expression of IL-4 and IL-13 was measured based on positive gated fractions among CD4+ Th2 cells. The number is expressed as a positive percentage, determined based on the fluorescence-minus-one (FMO) control. The max percent is 100%. The normalized reduction value uses the vehicle control (water) to normalize against using the following percent change formula. (Cmpd: compound)

IL-4 receptor signaling = test: IL-4 signaling inhibition in HEK-Blue IL-4/IL-13 cells; format: cell-based, human; settings: HEK-Blue IL-4/IL-13 cells stimulated with 1.25 ng/mL IL-4, co-culture with varying concentrations for 24 hours
Protocol: HEK-Blue IL-4/IL-13 cells are used to evaluate IL-4/IL-4R-alpha binding. HEK-Blue IL-4/IL-13 have been engineered to produce secreted alkaline phosphatase (SEAP) when exposed to IL-4 or IL-13 and have been previously used to identify IL-4 and IL-4R inhibitors. Compounds are tested with these cells at various dosages to evaluate dose dependent changes in IL-4/IL-4R-alpha binding inhibition. Full EC50 curves are generated for Tier1 compounds.
In the experiment, engineered HEK-Blue™ IL-4/IL-13 cells were stimulated with a dose of 1.25 ng/mL of IL-4 and then subjected to co-culture with varying concentrations of the compounds for a period of 24 hours. […] The provided data represent the mean±standard deviation of six technical replicates carried out across two experimental replicates.

IL-13 = test: Functional Th2-blocking activity: IL-13 expression in primary human Th2 cells (intracellular flow cytometry); format: cell-based; settings: for Expression of Cytokine following Stimulation (% X Positive among CD4+ T cells) IL-13: 3 days co-culture with compound, PMA/ionomycin stimulation 6 hours; for % Normalized Reduction of Cytokine Expression From Baseline in CD4+ T Cells IL-13: normalized against vehicle control (water), 3 days co-culture, PMA/ionomycin 6 hours
Source text: as §1, §2, §3, §4, §5

| SMILES | Th2 activity (IL-4) | % Normalized Reduction of Cytokine Expression From Baseline in CD4+ T Cells IL-4 (IL-4) | Expression of Cytokine following Stimulation (% X Positive among CD4+ T cells) IL-4 (IL-4) | IL-4 signaling inhibition (IL-4 receptor signaling) | Expression of Cytokine following Stimulation (% X Positive among CD4+ T cells) IL-13 (IL-13) | % Normalized Reduction of Cytokine Expression From Baseline in CD4+ T Cells IL-13 (IL-13) |
| --- | --- | --- | --- | --- | --- | --- |
| O=C(Nc1cccc(Cn2nc3ccccn3c2=O)c1)c1c[nH]n2c1nc(=O)c1ccccc12 [II-2, 5-oxo-N-(3-((3-oxo-[1,2,4]triazolo[4,3-a]pyridin-2(3H)-yl)methyl)phenyl)-1,5-dihydropyrazolo[1,5-a]quinazoline-3-carboxamide] | suppressed Th2 activity | B (B represents 15% to less than 20%) | B (B represents 30% to less than 35%) | exception | B (B represents 10% to less than 14%) | D (D represents 50% or greater) |
| Nc1c(C(=O)Nc2ccc(Cl)c(Cl)c2)c2ccccn2c1C(=O)c1cccc([N+](=O)[O-])c1 [Compound I-3, 2-amino-N-(3,4-dichlorophenyl)-3-(3-nitrobenzoyl)indolizine-1-carboxamide] |  | B (B represents 15% to less than 20%) | B (B represents 30% to less than 35%) | prominent IL-4 signaling inhibition | C (C represents 14% to less than 18%) | C (C represents 40% to less than 50%) |
| O=C(Nc1cccc(S(=O)(=O)NC2=NCCC2)c1)c1ccc(OCc2ccccc2)cc1 [III-1, 4-(benzyloxy)-N-{3-[(3,4-dihydro-2H-pyrrol-5-yl)sulfamoyl]phenyl}benzamide] |  | D (D represents 25% or greater) | A (A represents 0% to less than 30%) | prominent IL-4 signaling inhibition | B (B represents 10% to less than 14%) | D (D represents 50% or greater) |
| O=c1c2ccccc2c(-c2nc(-c3ccccc3Cl)no2)nn1-c1ccccc1 [IV-3, 4-[3-(2-chlorophenyl)-1,2,4-oxadiazol-5-yl]-2-phenyl-1,2-dihydrophthalazin-1-one] |  | C (C represents 20% to less than 25%) | B (B represents 30% to less than 35%) |  | C (C represents 14% to less than 18%) | B (B represents 30% to less than 40%) |
| Cc1ccc(C)n1-c1ccsc1C(=O)NC1CCCC1 [VI-5, N-cyclopenty1-3-(2,5-dimethy1-1H-pyrrol-1-yl)thiophene-2-carboxamide] |  | B (B represents 15% to less than 20%) | B (B represents 30% to less than 35%) |  | C (C represents 14% to less than 18%) | B (B represents 30% to less than 40%) |
| O=C1CCC(N2Cc3c(OCC(=O)N4CCCC(c5ccccn5)C4)cccc3C2=O)C(=O)N1 (stereo not shown) [Compound V-2, 3-(1-oxo-4-{2-oxo-2-[3-(pyridin-2-yl)piperidin-1-yl]ethoxy}-2,3-dihydro-1H-isoindol-2-yl)piperidine-2,6-dione] |  | D (D represents 25% or greater) | A (A represents 0% to less than 30%) |  | B (B represents 10% to less than 14%) | D (D represents 50% or greater) |
